The ΔTm is the change in melting temperature against a reference sample. One may read the EC50 as the concentration needed to bring the measured effect to its halfway point. The low end stands for an effect from little substance, the high end for a need for much substance.

Among the data in patent US11535633B2, “Fused tricyclic heterocycle compounds and therapeutic uses thereof” (Jiangsu Hengrui Medicine Co., Ltd., priority 2018, dated 2022) are ΔTm and EC50 values, retold here.

Experiment [1] deals with T1, hSTING c-terminal domain (purified hSTING aa154-342) (Homo sapiens, UniProt Q86WV6).
T1 construct: Purified hSTING (aa154-342)
The experiment is described as follows: Thermal shift assay for measuring the relative binding affinity to hSTING c-terminal domain. The following applies: Tm of sample minus mean Tm of negative control (buffer, 2% DMSO), SYPRO Orange. As to the method: Test Example 1. Thermal Shift Assay for Measuring the Relative Binding Affinity to hSTING c-Terminal Domain
From each of the 10 mM stock solutions of compounds in DMSO, dilutions are made to create samples with three concentrations 10 mM, 5 mM and 2.5 mM. From these dilutions a final 50 fold dilution is made into assay buffer, giving concentrations of 200 μM, 100 μM, and 50 μM. From each of the buffer dilutions, 5 μL is added to the 384 well assay plate. A positive control is setup with cGAMP using the same dilution scheme as the ligands. A baseline thermal shift for the negative control is determined using buffer and 2% DMSO.
An aliquot of protein is thawed on ice and SYPRO orange reagent is brought to room temperature. The 5000× SYPRO orange stock is diluted in assay buffer to a concentration of 10×. Protein is diluted to a concentration of 10 μM in the prepared buffer/dye solution. Five micro-liters of protein/buffer/dye solution is added to each of the sample and control wells, and the plate is sealed with the provided films. The plate is centrifuged for 5 min at 20° C. at 1000 rpm.
On the Light Cycler instrument, measurements are made over a temperature gradient from 20° C. to 99° C. at 0.07° C./s and data acquisitions collected at a rate of 8/° C. is used to measure the change in fluorescence as a function of temperature. Data analysis is performed using the Roche Light Cycler Software to determine the melting temperature (Tm ° C.) of each sample. A mean Tm ° C. for the negative control is calculated and subtracted from each of the samples to generate the ΔTm ° C. values for each of the ligands.
The relative binding affinity to hSTING c-terminal domain of the compounds of the present invention was determined by the above assay, and ΔTm ° C. values are shown in the following table 1.

Experiment [2] has as its target T2, STING in THP1-Dual KI-hSTING-R232 cells (Homo sapiens, UniProt Q86WV6, H232R).
T2 construct: host or cells: THP1-Dual KI-hSTING-R232 cells (human monocytic THP-1 reporter line)
The experiment is described as follows: Human THP1 reporter cell assay (IRF luciferase reporter). The class given is cell-based. The following applies: 24 hours incubation. How it is done:
Test Example 2. Human THP1 Reporter Cell Assay
• 1. Human THP1-Dual KI-hSTING-R232 Cells (InvivoGen, Cat. #thpd-r232) • 2. QUANTI-LUC (InvivoGen, Cat. #rep-qlc2) • 3. Media for cell culture and compound dilution: RPMI with high glucose and glutamine (Genesee, Cat. #25-506), 10% fetal bovine serum (Life Technologies, Cat. #10082147), 25 mM HEPES (Genesee, Cat. #25-534), 100 μg/ml Normocin (InvivoGen, Cat. #ant-nr-2), 10 μg/ml blasticidin (InvivoGen, Cat. #ant-bl-05), 100 μg/ml Zeocin (InvivoGen, Cat. #ant-zn-5p) and Penicillin-Streptomycin (100×) (Life Technologies, Cat. #15140122) • 4. Infinite M1000 plate reader (TECAN) Experimental Procedure
Activation of STING in THP1-Dual KI-hSTING-R232 cells was determined by measuring the luminescence signal resulting from the expression of the IRF luciferase reporter gene. All reagent preparation and assay procedures were conducted according to the protocols provided by InvivoGen. In brief, test compounds and cells (1×10^5 cells per well) were dispensed into 96-well plates with a final volume per well of 150 μl. Plates were incubated in a humidified, 5% CO2 incubator at 37° C. for 24 hours. The expression level of the reporter gene was measured by transferring 20 μl of the supernatant to a non-transparent 96-well plate to which 50 μl of QUANTI-LUC was dispensed into each well. The resulting luminescence signal was immediately read using a TECAN plate reader. The background luminescence signal from media was subtracted. The fold induction effect of the luminescence signal at each compound concentration was determined relative to controls that lack compound treatment. The plot of fold induction effect versus the log of compound concentration was fit in GraphPad Prism with a 4-parameter concentration response equation to calculate EC50 and Emax.
Activation of STING in THP1 of the compounds in the present invention was determined by the above assay, and EC50 values are shown in the following table 2.

The subject of experiment [3] is Human PBMC cells. The experiment is described as follows: IFNβ secretion in human PBMC. To be noted: IFNβ in supernatant by ELISA, 5 hours incubation. The class given is cell-based. As to the method:
Test Example 3. IFNβ Secretion in Human PBMC
• 1. Human PBMC cells (STEMCELL Technologies) • 2. Lymphocyte Medium (Zenbio) • 3. Culture and compound dilution media: RPMI with high glucose and glutamine (Genesee, Cat. #25-506), 10% fetal bovine serum (Life Technologies, Cat. #10082147), 100 μg/ml Normocin (InvivoGen, Cat. #ant-nr-2) and Penicillin-Streptomycin (100×) (Life Technologies, Cat. #15140122) • 4. Human IFNβ Quantikine ELISA kit (R&D systems) • 5. Infinite M1000 plate reader (TECAN) Experimental Procedure
Cryopreserved peripheral blood human mononuclear cells (PBMCs) were rapidly thawed and resuspended in Lymphocyte Media and centrifuged at 500×g for 5 minutes. The supernatant was removed and the cell pellets were gently resuspended in cell culture and compound dilution media. Human PBMC cells were plated in a 96-well format at a concentration of 1.5×10^5 cells per well. The test compounds, at varying concentrations, or vehicle control (<0.3% DMSO) were mixed with the cells giving a final volume of 150 μl per well. The plates were incubated for 5 hours in a humidified, 5% CO2 incubator at 37° C. After incubation, the human IFNβ in the supernatant and the IFNβ standard controls were measured using human IFNβ Quantikine ELISA kit according to the manufacturer's protocol. The absorbance at 450 nm was measured with Infinite M1000 plate reader and corrected by background reading at 540 nm of each well. The amount of […] based on the standard curves. The plot of IFNβ concentration versus the log of compound concentration was fit in GraphPad Prism with a 4-parameter concentration response equation to calculate EC50 and Emax.
On the technique in general: In an ELISA, binding on a coated surface is turned into a signal by an enzyme label.

T2 sequence (Q86WV6 whole entry H232R): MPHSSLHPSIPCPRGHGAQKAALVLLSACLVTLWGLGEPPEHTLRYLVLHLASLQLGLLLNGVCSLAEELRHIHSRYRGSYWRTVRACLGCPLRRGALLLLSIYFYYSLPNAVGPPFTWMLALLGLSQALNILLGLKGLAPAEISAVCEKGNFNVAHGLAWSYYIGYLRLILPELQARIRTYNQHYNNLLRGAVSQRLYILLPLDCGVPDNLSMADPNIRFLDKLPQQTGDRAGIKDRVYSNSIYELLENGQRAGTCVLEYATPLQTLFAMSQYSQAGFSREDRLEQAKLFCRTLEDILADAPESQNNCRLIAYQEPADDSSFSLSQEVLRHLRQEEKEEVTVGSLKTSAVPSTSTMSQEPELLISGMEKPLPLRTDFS
T1 sequence (Q86WV6 154-342): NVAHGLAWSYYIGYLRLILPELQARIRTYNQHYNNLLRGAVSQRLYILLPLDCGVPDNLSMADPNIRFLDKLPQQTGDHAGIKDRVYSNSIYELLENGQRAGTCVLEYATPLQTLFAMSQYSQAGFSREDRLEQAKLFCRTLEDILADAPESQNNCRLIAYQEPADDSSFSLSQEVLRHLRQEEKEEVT

Regarding `CC=CCC1COc2cc(C(N)=O)cc3nc(NC(=O)c4cc(C)nn4CC)n1c23` (stereo not drawn) [Example 5, 3-(but-2-en-1-yl)-2-(1-ethyl-3-methyl-1H-pyrazole-5-carboxamido)-3,4-dihydro-5-oxa-1,2a-diazaacenaphthylene-7-carboxamide], in experiment [1], the ΔTm at 100 µM was found to be 2.9 °C. Further, the results for the concentration giving a half-maximal response (EC50) in experiment [2] and in experiment [3] were 3 µM and 2 µM, respectively.
The like results for `CCn1nc(C)cc1C(=O)Nc1nc2cc(C(N)=O)cc(OC)c2n1CCC[C@H]1COc2cc(C(N)=O)cc3nc(NC(=O)c4cc(C)nn4CC)n1c23` [Example 13, (S)-3-(3-(5-carbamoyl-2-(1-ethyl-3-methyl-1H-pyrazole-5-carboxamido)-7-methoxy-1H-benzo[d]imidazol-1-yl)propyl)-2-(1-ethyl-3-methyl-1H-pyrazole-5-carboxamido)-3,4-dihydro-5-oxa-1,2a-diazaacenaphthylene-7-carboxamide] were, in that order, 10.7 °C, 0.03 µM and 0.1 µM.
